In US5753660A, “Substituted sulfonylalkanoylamino hydroxyethylamino sulfonamide retroviral protease inhibitors” (G. D. Searle & Co., priority 1996, dated 1998):

What was measured:
[1] = target: T1, HIV protease (Human immunodeficiency virus type 1 group M subtype B, UniProt P04585); assay: HIV protease enzyme assay; format: biochemical; details: HIV protease 12.3 nanomolar; substrate 80 μM; pH 6.4; ambient temperature
T1 construct: HIV protease is diluted in the assay buffer to a final enzyme concentration of 12.3 nanomolar, based on a molecular weight of 10,780
Source text: The compounds of the present invention are effective HIV protease inhibitors. Utilizing an enzyme assay as described below, the compounds set forth in the examples herein disclosed inhibited the HIV enzyme. The preferred compounds of the present invention and their calculated IC50 (inhibiting concentration 50%, i.e., the concentration at which the inhibitor compound reduces enzyme activity by 50%) values are shown in Table 14. The enzyme method is described below. The substrate is 2-Ile-Nle-Phe(p-NO2)-Gln-ArgNH2. The positive control is MVT-101 (Miller, M. et al, Science, 246, 1149 (1989)] The assay conditions are as follows:
Assay buffer: 20 mM sodium phosphate, pH 6.4
The above described substrate is dissolved in DMSO, then diluted 10 fold in assay buffer. Final substrate concentration in the assay is 80 μM. HIV protease is diluted in the assay buffer to a final enzyme concentration of 12.3 nanomolar, based on a molecular weight of 10,780.
The final concentration of DMSO is 14% and the final concentration of glycerol is 18%. The test compound is dissolved in DMSO and diluted in DMSO to 10×the test concentration; 10 μl of the enzyme preparation is added, the materials mixed and then the mixture is incubated at ambient temperature for 15 minutes. The enzyme reaction is initiated by the addition of 40 μl of substrate. The increase in fluorescence is monitored at 4 time points (0, 8, 16 and 24 minutes) at ambient temperature. Each assay is carried out in duplicate wells.

[2] = system: HIV-1; assay: HIV inhibition assay in acutely infected CEM cells (tetrazolium/MTT based); format: cell-based; details: Human immunodeficiency virus 1, CCRF-CEM, 168 h, HIV-1 1000 TCID50, MTT, 7 days
Description: The effectiveness of various compounds were determined in the above-described enzyme assay and in a CEM cell assay.
The HIV inhibition assay method of acutely infected cells is an automated tetrazolium based calorimetric assay essentially that reported by Pauwles et al, J. Virol. Methods, 20, 309-321 (1988). Assays were performed in 96-well tissue culture plates. CEM cells, a CD4+ cell line, were grown in RPMI-1640 medium (Gibco) supplemented with a 10% fetal calf serum and were then treated with polybrene (2 μug/ml). An 80 μl volume of medium containing 1×10^4 cells was dispensed into each well of the tissue culture plate. To each well was added a 100 μl volume of test compound dissolved in tissue culture medium (or medium without test compound as a control) to achieve the desired final concentration and the cells were incubated at 37° C. for 1 hour. A frozen culture of HIV-1 was diluted in culture medium to a concentration of 5×10^4 TCID50 per ml (TCID50 =the dose of virus that infects 50% of cells in tissue culture), and a 20 μl volume of the virus sample (containing 1000 TCID50 of virus) was added to wells containing test compound and to wells containing only medium (infected control cells). Several wells received culture medium without virus (uninfected control cells). Likewise, the intrinsic toxicity of the test compound was determined by adding medium without virus to several wells containing test compound. In summary, the tissue culture plates contained the following experiments:
In experiments 2 and 4 the final concentrations of test compounds were 1, 10, 100 and 500 μg/ml. Either azidothymidine (AZT) or dideoxyinosine (ddI) was included as a positive drug control. […] DMSO was added to all control wells at an appropriate concentration.
Following the addition of virus, cells were incubated at 37° C. in a humidified, 5% CO2 atmosphere for 7 days. Test compounds could be added on days 0, 2 and 5 if desired. On day 7,post-infection, the cells in each well were resuspended and a 100 μl sample of each cell suspension was removed for assay. A 20 μL volume of a 5 mg/ml solution of 3-(4,5-dimethylthiazol-2-yl)-2,5-diphenyltetrazolium bromide (MTT) was added to each 100 μL cell suspension, and the cells were incubated for 4 hours at […] in a 5% CO2 environment. […] To each sample was added 100 μl of 10% sodium dodecylsulfate in 0.01N HC1 to lyse the cells, and samples were incubated overnight. The absorbance at 590 nm was determined for each sample using a Molecular Devices microplate reader. Absorbance values for each set of wells is compared to assess viral control infection, uninfected control cell response as well as test compound by cytotoxicity and antiviral efficacy.

| Structure (SMILES) | IC50 [1] [µM] | EC50 [2] [µM] |
| --- | --- | --- |
| CC(C)CN(C[C@@H](O)[C@H](Cc1ccccc1)NC(=O)[C@H](C)CS(=O)(=O)c1ccccn1)S(=O)(=O)c1ccc2c(c1)OCO2 [Example 19] | 0.011 | 0.174 |
| CCOC(=O)CCCSC[C@@H](C)C(=O)N[C@@H](Cc1ccccc1)[C@H](O)CN(CC(C)C)S(=O)(=O)c1ccc2c(c1)OCO2 [Example 11] | 0.022 |  |
| CC(C)CN(C[C@@H](O)[C@H](Cc1ccccc1)NC(=O)[C@H](C)CS(=O)(=O)CC(=O)N1CCN(C(=O)OC(C)(C)C)CC1)S(=O)(=O)c1ccc2c(c1)OCO2 [Example 7] | 0.007 |  |
| CC(C)CN(C[C@@H](O)[C@H](Cc1ccccc1)NC(=O)[C@H](C)CS(=O)(=O)Cc1cc[nH]n1)S(=O)(=O)c1ccc2c(c1)OCO2 [Example 13] | 0.005 | 0.071 |
| CC(C)CN(C[C@@H](O)[C@H](Cc1ccccc1)NC(=O)[C@H](C)CS(=O)(=O)CCC(=O)N1CCOCC1)S(=O)(=O)c1ccc2c(c1)OCO2 [Example 6] | 0.024 | 0.123 |
| CC(C)CN(C[C@@H](O)[C@H](Cc1ccccc1)NC(=O)[C@H](C)CS(=O)(=O)CCc1ccccn1)S(=O)(=O)c1ccc2c(c1)OCO2 | 0.003 | 0.006 |
| CC(C)CN(C[C@@H](O)[C@H](Cc1ccccc1)NC(=O)[C@H](C)CS(=O)(=O)Cc1c[nH]cn1)S(=O)(=O)c1ccc2c(c1)OCO2 [Example 12] | 0.007 | 0.187 |
| CC(C)CN(C[C@@H](O)[C@H](Cc1ccccc1)NC(=O)[C@H](C)CS(=O)(=O)CC(=O)c1ccccc1)S(=O)(=O)c1ccc2c(c1)OCO2 [Example 9] | 0.004 | 0.039 |
| CC(C)CN(C[C@@H](O)[C@H](Cc1ccccc1)NC(=O)[C@H](C)CS(=O)(=O)CC(CO)CO)S(=O)(=O)c1ccc2c(c1)OCO2 [Example 20] | 0.004 |  |
| CC(C)CN(C[C@@H](O)[C@H](Cc1ccccc1)NC(=O)[C@H](C)CS(=O)(=O)C[C@@H]1CCCN1)S(=O)(=O)c1ccc2c(c1)OCO2 [Example 18] | 0.006 |  |
| CC(C)CN(C[C@@H](O)[C@H](Cc1ccccc1)NC(=O)[C@H](C)CS(=O)(=O)C[C@H]1CCCN1C(=O)OCc1ccccc1)S(=O)(=O)c1ccc2c(c1)OCO2 [Example 25] | 0.006 | 0.043 |
| CC(C)CN(C[C@@H](O)[C@H](Cc1ccccc1)NC(=O)[C@H](C)CSCCC(=O)N1CCN(C(=O)OC(C)(C)C)CC1)S(=O)(=O)c1ccc2c(c1)OCO2 [Example 26] | 0.016 |  |
| CC(C)CN(C[C@@H](O)[C@H](Cc1ccccc1)NC(=O)[C@H](C)CSCC(=O)NCCN1CCCC1)S(=O)(=O)c1ccc2c(c1)OCO2 [Example 27] | 0.075 |  |
| CC(C)CN(C[C@@H](O)[C@H](Cc1ccccc1)NC(=O)[C@H](C)CS(=O)(=O)CC(=O)NCC[N+]1([O-])CCOCC1)S(=O)(=O)c1ccc2c(c1)OCO2 [Example 5] | 0.01 |  |
| CC(C)CN(C[C@@H](O)[C@H](Cc1ccccc1)NC(=O)[C@H](C)CSCC(=O)N1CCSCC1)S(=O)(=O)c1ccc2c(c1)OCO2 [Example 24] | 0.025 |  |
| CC(C)CN(C[C@@H](O)[C@H](Cc1ccccc1)NC(=O)[C@H](C)CSCC(=O)N1CCN(C(=O)OC(C)(C)C)CC1)S(=O)(=O)c1ccc2c(c1)OCO2 [Example 23] | 0.012 |  |
| CC(C)CN(C[C@@H](O)[C@H](Cc1ccccc1)NC(=O)[C@H](C)CS(=O)(=O)Cc1cncs1)S(=O)(=O)c1ccc2c(c1)OCO2 [Example 16] | 0.004 | 0.021 |
| CC(C)CN(C[C@@H](O)[C@H](Cc1ccccc1)NC(=O)[C@H](C)CS(=O)(=O)Cc1nc2ccccc2[nH]1)S(=O)(=O)c1ccc2c(c1)OCO2 [Example 15] | 0.003 | 0.047 |
| CC(C)CN(C[C@@H](O)[C@H](Cc1ccccc1)NC(=O)[C@H](C)CS(=O)(=O)CCC(=O)N1CCN(C(=O)OC(C)(C)C)CC1)S(=O)(=O)c1ccc2c(c1)OCO2 [Example 3] | 0.004 |  |
| CC(C)CN(C[C@@H](O)[C@H](Cc1ccccc1)NC(=O)[C@H](C)CS(=O)(=O)Cc1cn[nH]c1)S(=O)(=O)c1ccc2c(c1)OCO2 [Example 14] | 0.004 | 0.081 |
| CC(C)CN(C[C@@H](O)[C@H](Cc1ccccc1)NC(=O)[C@H](C)CS(=O)(=O)CCC(=O)N1CCNCC1)S(=O)(=O)c1ccc2c(c1)OCO2 [Example 4] | 0.004 |  |
| CC(C)CN(C[C@@H](O)[C@H](Cc1ccccc1)NC(=O)[C@H](C)CS(=O)(=O)CC(=O)N1CCNCC1)S(=O)(=O)c1ccc2c(c1)OCO2 [Example 8] | 0.027 |  |
| CC(C)CN(C[C@@H](O)[C@H](Cc1ccccc1)NC(=O)[C@H](C)CSCC(=O)N1CCOCC1)S(=O)(=O)c1ccc2c(c1)OCO2 [Example 22] | 0.063 |  |
| CC(C)CN(C[C@@H](O)[C@H](Cc1ccccc1)NC(=O)[C@H](C)CS(=O)(=O)CC(=O)NCC[N+]1([O-])CCCC1)S(=O)(=O)c1ccc2c(c1)OCO2 [Example 2] | 0.01 |  |
| CC(C)CN(C[C@@H](O)[C@H](Cc1ccccc1)NC(=O)[C@H](C)CS(=O)(=O)CC(=O)N1CCS(=O)(=O)CC1)S(=O)(=O)c1ccc2c(c1)OCO2 [Example 10] | 0.016 |  |
| CC(C)CN(C[C@@H](O)[C@H](Cc1ccccc1)NC(=O)[C@H](C)CS(=O)(=O)C[C@H]1CCCN1)S(=O)(=O)c1ccc2c(c1)OCO2 [Example 17] | 0.004 | 0.16 |
| COC1O[C@H](CS(=O)(=O)C[C@@H](C)C(=O)N[C@@H](Cc2ccccc2)[C@H](O)CN(CC(C)C)S(=O)(=O)c2ccc3c(c2)OCO3)[C@@H](O)[C@H]1O (some centres unmarked) [Example 21] | 0.009 |  |
